PubChem BioAssay (NCI)
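Step 1: Grow cells in 96-well plates. Step 2: Expose to compound for 48 hours at 5 concentrations. Step 3: Interpolate endpoints linearly; if unreached, use highest concentration. GI50 = concentration required for 50% inhibition of growth. TGI denotes the concentration required for complete inhibition of growth.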

Legend:
Experiment in all cases: NCI tumour cell line growth inhibition, 48 h
U251 CNS = tested on: U251 CNS
HOP-92 NSCLC = tested on: HOP-92 NSCLC
OVCAR-8 ovarian = tested on: OVCAR-8 ovarian
RXF 393 renal = tested on: RXF 393 renal
SN12C renal = tested on: SN12C renal
SF-268 CNS = tested on: SF-268 CNS
UACC-62 melanoma = tested on: UACC-62 melanoma
UACC-257 melanoma = tested on: UACC-257 melanoma
NCI-H23 lung = tested on: NCI-H23 lung
786-0 renal = tested on: 786-0 renal

SMILES	GI50 (U251 CNS) [µM]	TGI (U251 CNS) [µM]	GI50 (HOP-92 NSCLC) [µM]	TGI (HOP-92 NSCLC) [µM]	GI50 (OVCAR-8 ovarian) [µM]	TGI (OVCAR-8 ovarian) [µM]	GI50 (RXF 393 renal) [µM]	TGI (RXF 393 renal) [µM]	GI50 (SN12C renal) [µM]	TGI (SN12C renal) [µM]	GI50 (SF-268 CNS) [µM]	TGI (SF-268 CNS) [µM]	GI50 (UACC-62 melanoma) [µM]	TGI (UACC-62 melanoma) [µM]	GI50 (UACC-257 melanoma) [µM]	TGI (UACC-257 melanoma) [µM]	GI50 (NCI-H23 lung) [µM]	TGI (NCI-H23 lung) [µM]	GI50 (786-0 renal) [µM]	TGI (786-0 renal) [µM]
O=C(Cc1csc2nc(-c3ccc(Br)cc3)cn12)N/N=C/c1ccc(Cl)cc1Cl	20.6	44.3	28.2	> 100	18.6	50.3	28.4	85.1	84.7	> 100	> 100	> 100	23.3	67.7	68.9	> 100	25.6	56.4	25.8	73.4
COc1ccc(/C=C\c2cc(OC)c(OC)c(OC)c2)cc1OCC(=O)Nc1nc2ccccc2s1	0.0416	> 32.9	0.204	> 31.1	0.257	> 100	0.0503	79.9	0.431	> 100	0.23	> 100	0.0587	> 100	11	> 100	0.0966	> 100	6.23	> 100
COc1ccc(-c2nnc(SCC(=O)Nc3ccc(C(=O)/C=C/c4cc(OC)c(OC)c(OC)c4)cc3)n2-c2ccccc2)cc1OC	5.39	> 10	–	–	5.29	> 10	2.13	6.85	> 10	> 10	3.46	> 10	6.4	> 10	> 10	> 10	8.27	> 10	3.53	> 10
CCOc1ccc(NCC2CC/C(=C\c3ccc(Cl)cc3)C2=O)cc1 (stereo not drawn)	–	> 57.3	–	41.6	–	> 52.8	–	> 64.6	–	> 60.3	–	> 86.7	–	> 64.3	–	> 56.1	–	> 73.4	–	25.8
O=C(NO)c1ccc(Cn2c(=O)n(-c3ccccc3)c(=O)c3ccccc32)cc1	0.86	2.3	1.6	4.18	–	–	1.11	2.66	–	–	1.38	4.52	0.482	2.16	0.811	2.78	–	–	1.48	3.2
O=C1c2cccc3c(Cl)ccc(c23)C(=O)N1CCCN1CCN(CCCN2C(=O)c3cccc4c(Cl)ccc(c34)C2=O)CC1	–	> 100	–	> 100	–	> 100	–	–	–	> 100	–	–	–	> 100	–	> 100	–	> 100	–	> 100
CCC(C)c1cccc(C)c1NC(=O)C(=O)Cc1nc2ccccc2s1 (stereo not drawn)	–	> 100	–	> 100	–	> 100	–	> 100	–	> 100	–	> 100	–	> 100	–	> 100	–	> 100	–	> 100
O=C1CCCC(O)=C1SC1=C(O)CCCC1=O	–	> 100	–	> 100	–	> 100	–	> 100	–	> 100	–	> 100	–	> 100	–	> 100	–	> 100	–	> 100
O=C1CCNC(=O)NC1	–	> 100	–	> 100	–	> 100	–	> 100	–	> 100	–	> 100	–	> 100	–	> 100	–	–	–	> 100
COC1C(CO)OC(n2c3c(Cl)cccc3c3c4c(c5c6cccc(Cl)c6[nH]c5c32)C(=O)NC4=O)C(O)C1O (stereo not drawn)	–	5.12	–	4.88	–	16.6	–	4.95	–	> 29.2	–	> 51.7	–	0.257	–	1.75	–	2.72	–	2.32
COc1cnc2c(c1)C(=O)c1c-2n(CCCNCCN2CCOCC2)c(=O)c2cc([N+](=O)[O-])ccc12	0.0783	1.1	0.866	22.8	0.174	10.2	0.387	1.93	0.0795	4.59	0.0818	13.3	0.0438	0.434	0.586	13.3	0.152	1.61	0.224	0.765
Cc1cc(NCc2cc(Nc3ccnc4cc(Cl)ccc34)ccc2F)nc(N2CCSCC2)n1	1.76	3.28	0.998	2.32	2.54	9.23	1.52	3.35	–	–	1.9	5.27	–	–	–	–	1.78	5.24	1.6	3.13
CN(C)c1ccc2cc3ccc(N(C)C)cc3nc2c1	–	5.79	–	20	–	5.62	–	22.7	–	7.28	–	6.26	–	28.2	–	24.8	–	6.17	–	2.26
C[C@@H](Oc1cc(-n2cnc3ccc(OCC4CCN(C)CC4)cc32)sc1C(N)=O)c1ccccc1Cl	0.106	3.86	0.156	2.51	0.0793	3.11	0.0546	2.76	0.344	4.52	0.112	4.07	0.0957	4.07	0.117	4.99	0.103	3.64	0.315	3.92
NC(CCc1ncc(-c2ccccc2)s1)C(=O)O (stereo not drawn)	–	> 100	–	> 100	–	> 100	–	> 100	–	> 100	–	–	–	> 100	–	> 100	–	> 100	–	> 100
CN(C)c1ccc(Nc2c3ccccc3nc3cc(NC(=O)CCN4CCCC4)ccc23)cc1	0.227	1.58	0.379	2.14	0.533	2.96	0.466	1.69	0.197	1.25	0.473	1.88	0.774	2.11	1.65	3.51	0.29	1.35	0.343	1.38
CNc1ccc([N+](=O)[O-])c2c(NCCCN(C)C)ccnc12	–	> 100	–	–	–	> 100	–	–	–	> 100	–	> 100	–	–	–	> 100	–	> 100	–	> 100
CN(C(=O)C12C3C4C1C1C2C3C41C(O)C(C)(C)C)C(C)(C)C (stereo not drawn)	–	> 100	–	–	–	> 100	–	–	–	> 100	–	> 100	–	> 100	–	> 100	–	> 100	–	> 100
O=C(Nc1ccc(Nc2ccncc2)cc1)c1ccc(Nc2ccnc3ccc([N+](=O)[O-])cc23)cc1[N+](=O)[O-]	2.76	> 24.8	24.6	> 74.2	13	45.2	24.9	42.5	20.4	> 55.5	–	–	11.1	58.8	11.3	29.5	20.6	> 100	6.03	42.4

SMILES	GI50 (U251 CNS) [µM]	TGI (U251 CNS) [µM]	GI50 (HOP-92 NSCLC) [µM]	TGI (HOP-92 NSCLC) [µM]	GI50 (OVCAR-8 ovarian) [µM]	TGI (OVCAR-8 ovarian) [µM]	GI50 (RXF 393 renal) [µM]	TGI (RXF 393 renal) [µM]	GI50 (SN12C renal) [µM]	TGI (SN12C renal) [µM]	GI50 (SF-268 CNS) [µM]	TGI (SF-268 CNS) [µM]	GI50 (UACC-62 melanoma) [µM]	TGI (UACC-62 melanoma) [µM]	GI50 (UACC-257 melanoma) [µM]	TGI (UACC-257 melanoma) [µM]	GI50 (NCI-H23 lung) [µM]	TGI (NCI-H23 lung) [µM]	GI50 (786-0 renal) [µM]	TGI (786-0 renal) [µM]
CC(O)C(NC(=O)c1ccccc1)C(=O)N(Cc1ccccc1)Cc1ccccc1 (stereo not drawn)	–	> 100	–	> 100	–	> 100	–	–	–	> 100	–	> 100	–	> 100	–	> 100	–	> 100	–	> 100
CCCCCCCCNC(C)C(O)c1ccc(SC(C)C)cc1 (stereo not drawn)	–	–	1.17	2.53	–	–	1.45	2.81	1.57	3.13	1.67	3.14	1.53	2.95	–	–	1.58	3.13	1.73	3.34
Cc1cccc(C(C)C)c1NC(=O)CCl	–	> 100	–	> 100	–	–	–	75.5	–	> 100	–	> 100	–	63.2	–	> 100	–	80	–	> 100
O=C(O)c1cn(C2CC2)c2cc(N3CCNCC3)c(F)cc2c1=O	–	–	–	–	> 100	> 100	> 100	> 100	> 100	> 100	–	–	> 100	> 100	> 100	> 100	> 100	> 100	> 100	> 100
CCCC(C)c1c(Cl)nc(Cl)nc1Cl (stereo not drawn)	–	21.2	–	–	–	55.9	–	22.4	–	48	–	> 100	–	–	–	26.2	–	18	–	12.7
O=C(Oc1ccc2c(-c3ccccc3)c(C(=O)Nc3ccc(Cl)cc3)c(=O)oc2c1)c1ccccc1	–	> 100	–	–	–	> 100	–	> 100	–	> 100	–	–	–	> 100	–	> 100	–	> 100	–	> 100
C=C1CCC2C(C)(CO)C(O)CCC2(C)C1C/C=C1/CCOC1=O (stereo not drawn)	–	> 100	–	> 100	–	> 100	–	–	–	> 100	–	–	–	> 100	–	> 100	–	> 100	–	> 100
O=S1c2ccccc2NC(c2ccc3ccccc3c2)CC1c1ccccc1 (stereo not drawn)	–	–	–	–	–	57	–	30.5	–	> 100	–	> 100	–	> 100	–	> 100	–	40.1	–	31.1
CC(C)C[CH2][Ge]([CH2]CC(C)C)([CH2]CC(C)C)[CH2]CC(C)C	> 100	> 100	–	–	> 100	> 100	–	–	> 100	> 100	> 100	> 100	> 100	> 100	> 100	> 100	> 100	> 100	> 100	> 100
COc1ccc2c(c1)C(=O)c1c-2c(N2CCN(C(=O)CNCCN(C)C)CC2)nc2ccccc12	2.19	4.68	1.57	4.15	3.9	17.5	–	–	2.54	7.56	2.28	6	2.16	3.69	1.95	3.7	–	–	1.48	3.09
CN1C(=O)CCC1c1ccc2c(c1)oc(=O)n2C (stereo not drawn)	–	> 100	–	–	–	> 100	–	> 100	–	> 100	–	> 100	–	> 100	–	> 100	–	> 100	–	> 100
O=c1ccn(C2(CO)C=C(CO)C(O)C2O)c(=O)[nH]1 (stereo not drawn)	–	> 25.7	–	–	–	> 25.7	–	> 25.7	–	> 25.7	–	> 25.7	–	> 25.7	–	> 25.7	–	–	–	> 25.7
Cc1ccc(/C=C/C(=O)c2ccc([N+](=O)[O-])cc2)cc1	–	> 100	–	–	–	> 100	–	> 100	–	> 100	–	> 100	–	> 100	–	> 100	–	99.8	–	> 100
CN(C)C(=S)/N=c1\ss/c(=N\C(=S)N(C)C)n1Cc1ccco1	–	> 100	–	–	–	> 100	–	> 100	–	> 100	–	> 100	–	> 100	–	> 100	–	–	–	> 100
CCOC(=O)c1ccccc1SC(C[N+](=O)[O-])c1ccccc1 (stereo not drawn)	12	24.7	6.94	21.9	10.5	22.5	1.64	3.09	8.17	20.8	6.06	19.2	13.3	27.1	–	–	12.3	35.1	2.23	4.97
COc1ccc(-c2nc(-c3ccccn3)c(-c3ccccn3)n2CC(C)C)cc1OC1CCCC1	20.6	86.9	–	–	17.3	158	–	–	24.5	> 165	43.8	> 165	–	–	26.2	95.3	28.5	> 165	48.7	> 165
COc1ccc(OC(C)C(=O)O)c2c1CCCC2=O (stereo not drawn)	–	> 100	–	–	–	> 100	–	> 100	–	> 100	–	> 100	–	> 100	–	> 100	–	> 100	–	> 100
Cc1cn([C@H]2C[C@H](O)[C@@H](CO)O2)c(=O)nc1N	–	> 100	–	–	–	> 100	–	–	–	> 100	–	> 100	–	> 100	–	> 100	–	> 100	–	> 100
